Source: US20080268535A1, “Method for Inducing the Differentiation of Human Myelogenous Leukemia Cells Into Megakarocytes or Thrombocytes” (EWHA University - Industry Collaboration Foundation, priority 2005, published 2008)
“Also recorded” adds a separate entry of the source.

What was measured:
Assay type in all cases: cell-based, human
[1] = test system: K562 cells; test: Differentiation of K562 cells layered on OP9 cells, CD41/CD61 by FACS
Method: OP9 cells were aliquoted at a density of 1×10^5 cells per well in 6-well plates and incubated for 24 hrs. After OP9 cells were uniformly attached onto the bottom of the plates, K562 cells were layered at a density of 1×10^5 cells per well over the OP cells in the 6-well plates. Treatment with 40 μg/ml of (R)-NALPCE was conducted before incubation in a day-dependent manner for 4 days. Following centrifugation (1,000 rpm, 5 min), the cell pellets thus obtained were rinsed three times with 0.01% bovine serum albumin (BSA) in PBS. Incubation with 10 μl of anti-CD41-fluorescein-5-isothiocyanate (FITC) (Dako Chemicals, Carpenteria, Calif.) and 20 μl of anti-CD61-phycoerythrin (PE) (BD Pharmingen) in 200 μl of 0.01% bovine serum albumin (BSA)-PBS was conducted at 4° C. for 50 min so as to achieve homogeneous fluorescent staining. After centrifugation (1,000 rpm, 10 min), the fluorescent-stained cell pellets thus obtained were washed three times with 0.01% bovine serum albumin (BSA) in PBS. Fluorescence was analyzed on a fluorescence-activated cell sorter (FACS) (Aria) using a Cellquest program.

[2] = test system: K562 cells; test: Transmission electron microscopy of cells differentiated from K562 cells on OP9 cells; details: 40 μg/ml, 5 days
Method: OP9 cells were aliquoted at a density of 1×10^5 cells in 6-well plates and incubated for 24 hrs. After the OP9 cells were uniformly attached onto the bottom of the plates, K562 cells were layered at a density of 1×10^5 cells over the OP9 cells in 6-well plates. The cells were treated with 40 μg/ml of (R)-NALPCE before incubation for 5 days. Following centrifugation (1,000 rpm, 5 min), the cells were pre-fixed with 2.5% glutaraldehyde in PBS (pH 7.4) for 24 hrs. Thereafter, cell pellets obtained by centrifugation (4,000 rpm, 10 min) were fixed for 1 hr with 1% osmium tetraoxide in 0.1 M PBS (pH 7.4). After being washed with PBS, the post-fixed samples were dehydrated with 60, 70, 80, 90, and 95% ethanol for 10 min each and then twice with 100% ethanol for 10 min each, and embedded in epoxy resin. The embedded samples were sectioned into slices 1 μm thick using an ultramicrotome diamond knife (Richert-Jung, U.S.A.) and stained with 1% toluidine blue for optical microscopy. Separately, ultra-thin sections ranging in thickness from 60 to 70 nm were prepared and stained sequentially with 1-2% uranyl acetate and 1% lead citrate for transmission electron microscopy, in which electrons were accelerated at 75 kV using H-600 TEM (Hitachi, Japan).

[3] = test system: K562 cells; test: MTT cytotoxicity assay of (R)-NALPCE; details: 10 to 50 μg/ml, 48 hrs incubation
Method: In order to examine whether the compound (R)-NALPCE is toxic to cells, MTT (3-[4,5-dimethylthiazol-2-yl]-2,5-diphenyltetrazolium bromide) assay was conducted in K562 cells which are the leukemia cells derived from human bone marrow. These cells were aliquoted at a density of 4×10^4 cells per well in 96-well plates and treated with various concentrations of (R)-NALPCE, followed by incubation for 48 hrs. Thereafter, an MTT solution was added in an amount of 20 μl to each well. Incubation at 37° C. for 4 hrs, treatment with a 20% sodium dodecyl sulfate (SDS) solution (in an equivolume mixture of N,N-dimethylformamide and distilled water), and incubation at 37° C. for 16 hrs were sequentially conducted in that order before the absorbance at 570 nm was read using an ELISA reader (Bio-Tek Instrument, Winiiski, Vt.). The assay was conducted in triplicate.

[4] = test system: K562 cells; test: Differentiation inductivity, lineage receptor expression by FACS, K562 cells; details: K562 cells, 40 μg/ml (R)-NALPCE or 30 nM PMA, 4 days
Method: K562 cells were aliquoted at a density of 2×10^5 per well in 6-well plates and treated with 40 μg/ml of (R)-NALPCE or 30 nM of PMA (12-phorbol myristate-13-acetate, Calbiochem.), followed by incubation for 4 days. After centrifugation (1,000 rpm, 10 min), the cell pellets thus obtained were washed three times with 0.01% bovine serum albumin (BSA) in PBS. The cells were incubated with 10 μl of anti-CD41-fluorescein-5-isothiocyanate (FITC) (Dako Chemicals, Carpenteria, Calif.), 20 μl of anti-CD16-Cy-Chrome (Cy) (BD Pharmingen), 10 μl of anti-glycophorin ACD235a-phycoerythrin (PE) (Dako Chemicals, Carpenteria, Calif.), and 20 μl of anti-CD14-allophycocyanin (APC) (BD Pharmingen) in 200 μl of 0.01% bovine serum albumin (BSA)-PBS at 4° C. for 50 min while spinning to realize homogeneous fluorescent staining. After centrifugation (1,000 rpm, 10 min), the cell pellets thus obtained were washed three times with 0.01% bovine serum albumin (BSA) in PBS. Fluorescence was analyzed on a fluorescence-activated cell sorter (FACS) (Aria) using a Cellquest program.

[5] = test system: HEL cells; test: Growth curve of HEL cells (trypan blue viable cell count); details: 5 μg/ml, counted every day for 5 days
Method: To examine the effect of the compound (R)-NALPCE on cell growth, the HEL cells was monitored for growth curve in the presence thereof. The cells were aliquoted at a density of 3×10^5 cells per well in 6-well plates and treated with 5 μg/ml of (R)-NALPCE. After staining with trypan blue, viable cells were counted every day for 5 days.

[6] = test system: K562 cells; test: Megakaryocyte differentiation, CD41/CD61 expression over time by FACS, K562 cells; details: 40 μg/ml, 4 days
Method: K562 cells were aliquoted at a density of 2×10^5 cells per well in 6-well plates and treated with 40 μg/ml of (R)-NALPCE, followed by incubation for 4 days. After centrifugation (1,000 rpm, 5 min), the cell pellets thus obtained were washed three times with 0.01% bovine serum albumin (BSA) in PBS. Incubation with 10 μl of anti-CD41-fluorescein-5-isothiocyanate (FITC) (Dako Chemicals, Carpenteria, Calif.) or 20 μl of anti-CD61-phycoerythrin (PE) (BD Pharmingen) in 200 μl of 0.01% bovine serum albumin (BSA)-PBS was conducted at 4° C. for 50 min with spinning to realize homogeneous fluorescent staining. Following centrifugation (1,000 rpm, 10 min), the cell pellets thus obtained were rinsed three times with 0.01% bovine serum albumin (BSA) in PBS. Fluorescence was analyzed on a fluorescence-activated cell sorter (FACS) (Aria) using a Cellquest program.

Compound: CCCCCCCCCCCCCCCCCC(=O)NC(COP(=O)([O-])OCC[N+](C)(C)C)C(=O)OC [(R)-NALPCE, N-steroyl-O-phosphocholine-D-serine methyl ester]
- increase in the count of CD41-positive cells, with OP9 cells versus alone ([1]; K562 cells on OP9 cells, 40 μg/ml, 4 days): 15%
- differentiation inductivity compared with PMA ([1]; in combination with OP9 cells): comparable with the differentiation inductivity of PMA; also recorded: as good as that of PMA
- maturity of megakaryocytes (TEM) [2]: have demarcation channels within which platelets are held
- morphology of released platelets (TEM) [2]: morphology similar to that of the pre-existing blood platelets
- polymorphonuclear megakaryocytes having at least two nuclei among the differentiated cells ([2]; TEM): ≥ 40%
- cytotoxicity on K562 cells (MTT) [3]: does not exert cytotoxicity
- expression of CD41, CD16, glycophorin A and CD14 receptors [4]: CD41 and CD16 were specifically expressed
- cell growth curve (viable cells) [5]: relatively low cell growth curve
- CD41 and CD61 expression rate [6]: increase in expression rate in a time-dependent manner
